According to PubChem BioAssay AID1963845 (Molecular Pharmacology Branch, DTP, NCI, 2024):

Test system: 429239-143-T-J1-PDC complex spheroid viability
Test: Anticancer human tumor 429239-143-T-J1-PDC patient-derived small cell lung carcinoma cell line growth inhibition [POLQ]
Settings: for IC50: curve of first compound; for viability, T/C: stronger effect = lower value
How it was run: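 Three-cell-type spheroids modelling solid tumor plus stroma served as the readout system; POL inhibitors were tested individually and in combination, concentration ranges set by clinical Cmax where known.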

[1] = second compound 0.0316 µM, first compound 0.00316 µM
[2] = second compound 0.0316 µM, first compound 0.01 µM
[3] = second compound 0.0316 µM, first compound 0.0316 µM
[4] = second compound 0.0316 µM, first compound 0.1 µM
[5] = second compound 0.1 µM, first compound 0.00316 µM
[6] = second compound 0.1 µM, first compound 0.01 µM
[7] = second compound 0.1 µM, first compound 0.0316 µM
[8] = second compound 0.1 µM, first compound 0.1 µM
[9] = second compound 0.316 µM, first compound 0.00316 µM
[10] = second compound 0.316 µM, first compound 0.01 µM
[11] = second compound 0.316 µM, first compound 0.0316 µM
[12] = second compound 0.316 µM, first compound 0.1 µM
[13] = second compound 1 µM, first compound 0.00316 µM
[14] = second compound 1 µM, first compound 0.01 µM
[15] = second compound 1 µM, first compound 0.0316 µM
[16] = second compound 1 µM, first compound 0.1 µM
[17] = second compound 3.16 µM, first compound 0.00316 µM
[18] = second compound 3.16 µM, first compound 0.01 µM
[19] = second compound 3.16 µM, first compound 0.0316 µM
[20] = second compound 3.16 µM, first compound 0.1 µM
[21] = second compound 10 µM, first compound 0.00316 µM
[22] = second compound 10 µM, first compound 0.01 µM
[23] = second compound 10 µM, first compound 0.0316 µM
[24] = second compound 10 µM, first compound 0.1 µM
[25] = second compound 0.0316 µM, first compound 0.316 µM
[26] = second compound 0.0316 µM, first compound 1 µM
[27] = second compound 0.1 µM, first compound 0.316 µM
[28] = second compound 0.1 µM, first compound 1 µM
[29] = second compound 0.316 µM, first compound 0.316 µM
[30] = second compound 0.316 µM, first compound 1 µM
[31] = second compound 1 µM, first compound 0.316 µM
[32] = second compound 1 µM, first compound 1 µM
[33] = second compound 3.16 µM, first compound 0.316 µM
[34] = second compound 3.16 µM, first compound 1 µM
[35] = second compound 10 µM, first compound 0.316 µM
[36] = second compound 10 µM, first compound 1 µM
[37] = second compound 0.0316 µM, first compound 3.16 µM
[38] = second compound 0.0316 µM, first compound 10 µM
[39] = second compound 0.1 µM, first compound 3.16 µM
[40] = second compound 0.1 µM, first compound 10 µM
[41] = second compound 0.316 µM, first compound 3.16 µM
[42] = second compound 0.316 µM, first compound 10 µM
[43] = second compound 1 µM, first compound 3.16 µM
[44] = second compound 1 µM, first compound 10 µM
[45] = second compound 3.16 µM, first compound 3.16 µM
[46] = second compound 3.16 µM, first compound 10 µM
[47] = second compound 10 µM, first compound 3.16 µM
[48] = second compound 10 µM, first compound 10 µM
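Further: luminescence signal used as surrogate measure of viable cells; spheroids exposed to compounds for seven days before readout.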
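Wherever viability, T/C is given: 100% = DMSO vehicle control viability as luminescence relative to vehicle.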

In the case of `CC[C@@]1(O)C(=O)OCc2c1cc1n(c2=O)Cc2cc3c(CN(C)C)c(O)ccc3nc2-1` + COC1C(OC(N)=O)C(O)C(Oc2ccc3c(O)c(NC(=O)c4ccc(O)c(CC=C(C)C)c4)c(=O)oc3c2C)OC1(C)C, the IC50 (second compound 0.0316 µM) is reported as 0.0135 µM, the IC50 (second compound 0.1 µM) is reported as 0.016 µM and the IC50 (second compound 0.316 µM) is reported as 0.015 µM. It also gave an IC50 (second compound 1 µM) of 0.0166 µM, an IC50 (second compound 3.16 µM) of 0.0136 µM and an IC50 (second compound 10 µM) of 0.0162 µM. For the same molecule, the viability, T/C (second compound 0.0316 µM, first compound 0.000316 µM) was 102%, the viability, T/C (second compound 0.0316 µM, first compound 0.001 µM) was 101% and the viability, T/C [1] was 86.5%. The viability, T/C [2] was 63%, the viability, T/C [3] was 18.6% and the viability, T/C [4] was 19.8%. It also gave a viability, T/C (second compound 0.1 µM, first compound 0.000316 µM) of 110%, a viability, T/C (second compound 0.1 µM, first compound 0.001 µM) of 108% and a viability, T/C [5] of 88.7%. For the same molecule, the viability, T/C [6] was 72.9%, the viability, T/C [7] was 16.8% and the viability, T/C [8] was 19%. The viability, T/C (second compound 0.316 µM, first compound 0.000316 µM) was 98.4%, the viability, T/C (second compound 0.316 µM, first compound 0.001 µM) was 97.4% and the viability, T/C [9] was 101%. It also gave a viability, T/C [10] of 66.3%, a viability, T/C [11] of 20.4% and a viability, T/C [12] of 19.7%. For the same molecule, the viability, T/C (second compound 1 µM, first compound 0.000316 µM) was 93.6%, the viability, T/C (second compound 1 µM, first compound 0.001 µM) was 98% and the viability, T/C [13] was 83.7%. For the same molecule, the viability, T/C [14] was 73.8%, the viability, T/C [15] was 17.7% and the viability, T/C [16] was 21.4%. The viability, T/C (second compound 3.16 µM, first compound 0.000316 µM) was 108%, the viability, T/C (second compound 3.16 µM, first compound 0.001 µM) was 93.4% and the viability, T/C [17] was 99.7%. It also gave a viability, T/C [18] of 61.4%, a viability, T/C [19] of 18.5% and a viability, T/C [20] of 18.4%. The viability, T/C (second compound 10 µM, first compound 0.000316 µM) was 87.8%, the viability, T/C (second compound 10 µM, first compound 0.001 µM) was 103% and the viability, T/C [21] was 91.1%. It also gave a viability, T/C [22] of 71.1%, a viability, T/C [23] of 20.8% and a viability, T/C [24] of 17.4%.

For `CCc1c2c(nc3ccc(O)cc13)-c1cc3c(c(=O)n1C2)COC(=O)[C@]3(O)CC` + COC1C(OC(N)=O)C(O)C(Oc2ccc3c(O)c(NC(=O)c4ccc(O)c(CC=C(C)C)c4)c(=O)oc3c2C)OC1(C)C, the IC50 (second compound 0.0316 µM) was < 0.00316 µM, the IC50 (second compound 0.1 µM) was < 0.00316 µM and the IC50 (second compound 0.316 µM) was < 0.00316 µM. For the same molecule, the IC50 (second compound 1 µM) was < 0.00316 µM, the IC50 (second compound 3.16 µM) was < 0.00316 µM and the IC50 (second compound 10 µM) was < 0.00316 µM. The viability, T/C [1] was 19.1%, the viability, T/C [2] was 17.6% and the viability, T/C [3] was 17.5%. The viability, T/C [4] was 20%, the viability, T/C [25] was 17.5% and the viability, T/C [26] was 8.92%. It also gave a viability, T/C [5] of 17%, a viability, T/C [6] of 17.4% and a viability, T/C [7] of 17.8%. For the same molecule, the viability, T/C [8] was 20.6%, the viability, T/C [27] was 14% and the viability, T/C [28] was 5.7%. The viability, T/C [9] was 17.4%, the viability, T/C [10] was 18.3% and the viability, T/C [11] was 17.3%. For the same molecule, the viability, T/C [12] was 14.5%, the viability, T/C [29] was 15.6% and the viability, T/C [30] was 5.23%. For the same molecule, the viability, T/C [13] was 21.4%, the viability, T/C [14] was 18.1% and the viability, T/C [15] was 18%. For the same molecule, the viability, T/C [16] was 19.1%, the viability, T/C [31] was 12.5% and the viability, T/C [32] was 6.46%. For the same molecule, the viability, T/C [17] was 20.1%, the viability, T/C [18] was 14.8% and the viability, T/C [19] was 18.4%. The viability, T/C [20] was 18.5%, the viability, T/C [33] was 15.3% and the viability, T/C [34] was 5.6%. For the same molecule, the viability, T/C [21] was 18.1%, the viability, T/C [22] was 18.9% and the viability, T/C [23] was 18.2%. The viability, T/C [24] was 15.8%, the viability, T/C [35] was 14.8% and the viability, T/C [36] was 5.55%.

For `O=C(c1cc(Cc2n[nH]c(=O)c3ccccc23)ccc1F)N1CCN(C(=O)C2CC2)CC1` + COC1C(OC(N)=O)C(O)C(Oc2ccc3c(O)c(NC(=O)c4ccc(O)c(CC=C(C)C)c4)c(=O)oc3c2C)OC1(C)C, the IC50 (second compound 0.0316 µM) was 1.94 µM, the IC50 (second compound 0.1 µM) was 1.96 µM and the IC50 (second compound 0.316 µM) was 1.7 µM. For the same molecule, the IC50 (second compound 1 µM) was 1.97 µM, the IC50 (second compound 3.16 µM) was 1.7 µM and the IC50 (second compound 10 µM) was 1.36 µM. The viability, T/C [3] was 97.2%, the viability, T/C [4] was 80.8% and the viability, T/C [25] was 79.1%. The viability, T/C [26] was 82.3%, the viability, T/C [37] was 26.2% and the viability, T/C [38] was 16.1%. For the same molecule, the viability, T/C [7] was 82.7%, the viability, T/C [8] was 88.6% and the viability, T/C [27] was 77.8%. It also gave a viability, T/C [28] of 74.3%, a viability, T/C [39] of 32.9% and a viability, T/C [40] of 18.2%. For the same molecule, the viability, T/C [11] was 103%, the viability, T/C [12] was 97.2% and the viability, T/C [29] was 86.8%. For the same molecule, the viability, T/C [30] was 68.9%, the viability, T/C [41] was 28.9% and the viability, T/C [42] was 18.2%. For the same molecule, the viability, T/C [15] was 104%, the viability, T/C [16] was 87.5% and the viability, T/C [31] was 81.2%. The viability, T/C [32] was 78.5%, the viability, T/C [43] was 30.4% and the viability, T/C [44] was 17.6%. The viability, T/C [19] was 97.3%, the viability, T/C [20] was 86.5% and the viability, T/C [33] was 73.8%. It also gave a viability, T/C [34] of 71.6%, a viability, T/C [45] of 29.2% and a viability, T/C [46] of 19%. The viability, T/C [23] was 106%, the viability, T/C [24] was 99.6% and the viability, T/C [35] was 86.9%. The viability, T/C [36] was 60.7%, the viability, T/C [47] was 24.8% and the viability, T/C [48] was 16.4%.

For `O=c1[nH]cc(F)c(=O)[nH]1` + COC1C(OC(N)=O)C(O)C(Oc2ccc3c(O)c(NC(=O)c4ccc(O)c(CC=C(C)C)c4)c(=O)oc3c2C)OC1(C)C, the IC50 (second compound 0.0316 µM) was 9.58 µM, the IC50 (second compound 0.1 µM) was 7.31 µM and the IC50 (second compound 0.316 µM) was 6.05 µM. For the same molecule, the IC50 (second compound 1 µM) was 9.05 µM, the IC50 (second compound 3.16 µM) was 7.96 µM and the IC50 (second compound 10 µM) was 6.66 µM. It also gave a viability, T/C [3] of 114%, a viability, T/C [4] of 111% and a viability, T/C [25] of 108%. For the same molecule, the viability, T/C [26] was 84.5%, the viability, T/C [37] was 61.6% and the viability, T/C [38] was 49%. For the same molecule, the viability, T/C [7] was 116%, the viability, T/C [8] was 111% and the viability, T/C [27] was 105%. For the same molecule, the viability, T/C [28] was 96.1%, the viability, T/C [39] was 57% and the viability, T/C [40] was 47.6%. It also gave a viability, T/C [11] of 96.7%, a viability, T/C [12] of 98% and a viability, T/C [29] of 97%. The viability, T/C [30] was 78.1%, the viability, T/C [41] was 62.9% and the viability, T/C [42] was 40.9%. It also gave a viability, T/C [15] of 86.1%, a viability, T/C [16] of 104% and a viability, T/C [31] of 96.4%. For the same molecule, the viability, T/C [32] was 82.3%, the viability, T/C [43] was 70.5% and the viability, T/C [44] was 47.9%. It also gave a viability, T/C [19] of 99.2%, a viability, T/C [20] of 98.8% and a viability, T/C [33] of 93%. For the same molecule, the viability, T/C [34] was 84.1%, the viability, T/C [45] was 75.9% and the viability, T/C [46] was 43.4%. For the same molecule, the viability, T/C [23] was 89%, the viability, T/C [24] was 97.6% and the viability, T/C [35] was 93.8%. The viability, T/C [36] was 85.4%, the viability, T/C [47] was 57.7% and the viability, T/C [48] was 45.8%.
